These results are taken from PubChem BioAssay (NCI).

“And” between values parts separate entries of the source, which are not always exact repeats. Identical values can stand only once.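 In this assay, cells in 96-well plates receive the compound at five concentrations for 48 hours. Endpoints are linearly interpolated between the surrounding concentrations. Abbreviation: GI50, concentration required for 50% inhibition of growth. The concentration for full growth arrest is given as TGI.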

What all share (assay): DTP human tumour cell line panel, 48 h
Test [1] concerns SK-OV-3 ovarian.
The subject of test [2] is EKVX NSCLC.
Test [3] deals with SF-295 CNS.
Test [4] deals with RPMI-8226 leukemia.
Test [5] relates to SK-MEL-5 melanoma.
The test system of test [6] is 786-0 renal.
Test [7] relates to LOX IMVI melanoma.
The subject of test [8] is OVCAR-5 ovarian.
The test system of test [9] is SK-MEL-2 melanoma.
Test [10] concerns SK-MEL-28 melanoma.

For the molecule `Fc1cccc(COc2ccc(Nc3ncnc4sc(-c5ccco5)cc34)cc2Cl)c1`, the GI50 in [1], in [2], in [3], in test [4], in test [5] and in test [6] was above 25 µM throughout. Further, the GI50 in [7], in [8], in test [9] and in [10] was above 25 µM in each case. Moreover, the TGI in test [1], in test [2], in test [3], in [4], in test [5] and in [6] was above 25 µM throughout. In addition, the TGI in test [7], in [8], in test [9] and in [10] was above 25 µM in each case.

For `CC1(C)C(=O)C(O)=CC2C1=CCC1C2(C)C(=O)CC2(C)C(C(C)(O)C(=O)CC(O)C(C)(C)O)C(O)CC12C` (stereo not drawn), the TGI in test [1] worked out at 28.9 µM; in [2] it was 38.8 µM; in [3], 13.1 µM; in test [4], 19.1 µM; in test [5] it was 8.53 µM; in test [6], 5.65 µM. For the same molecule, the TGI in test [7] is 6.95 µM; in [8], above 100 µM; in [9], 6.12 µM; in test [10] it was 7.43 µM.

For the molecule `Nc1c(C(=O)Nc2ccc([As](=O)(O)O)cc2)cnc2nnnn12`, the TGI in test [1], in [2], in [3], in test [4], in [5] and in test [6] was above 100 µM each time. Moreover, the TGI in [7], in [8], in [9] and in [10] was above 100 µM throughout.

In the case of `Cc1cc2c(cc1C)NC1=C(N2)OC(c2c[nH]c3ccc(COc4ccccc4)cc23)C1=O` (stereo not drawn), the TGI in [1], in test [2], in [3], in [4], in [5] and in [6] was above 100 µM in each case. Besides, the TGI in test [7], in [8], in [9] and in test [10] was above 100 µM each time.

As to `COc1ccc(-c2cc(-c3ccc(Cl)cc3)c(C#N)c(=O)n2CCCCC(=O)Nc2ccccc2N)cc1`, the GI50 is 11.3 µM in [1]; 3.25 µM in test [2]; 2.33 µM in test [3]; 0.789 µM in test [4]; 2.05 µM in test [5]; 7.46 µM in test [6]. The GI50 was 1.16 µM in test [7], 10.8 µM in test [8], 9.05 µM in [9] and 9.13 µM in test [10]. Also, the TGI in test [1] was 54.3 µM; in [2], 91.3 µM; in test [3], 5.96 µM; in test [4], 6.68 µM; in [5], 4.48 µM; in test [6] it was above 100 µM. The TGI in [7] is 2.92 µM; in test [8], above 100 µM; in test [9], 37.8 µM; in [10], above 100 µM.

For the molecule `COc1cc(-c2oc3ccccc3c(=O)c2O)cc(OC)c1OC`, the TGI is above 100 µM in test [1]; above 100 µM in [2]; above 100 µM in [3]; above 100 µM in test [4]; above 100 µM in [5]; 41.6 µM in test [6]. Besides, the TGI in test [7], in [8], in test [9] and in test [10] was above 100 µM throughout.

For the molecule `Nc1cc2c3c(cccc3c1)NC2=O`, the TGI in test [1], in [2], in [3], in [4], in test [5] and in test [6] was above 100 µM throughout. The TGI in test [7], in test [8], in [9] and in test [10] was above 100 µM in each case.

In the case of `Clc1ccccc1NN(Cc1ccccn1)c1ccccc1Cl`, the TGI was determined as 94.9 µM in test [1]; 52.5 µM in test [2]; 71.4 µM in test [3]; 61.4 µM in [4]; 27.9 µM in test [5]; 31.6 µM in test [6]. The TGI turned out to be 32.8 µM in [7], 45.7 µM in [8], 32.6 µM in test [9] and 43.4 µM in test [10].

For `C#C[C@]1(O)CC[C@H]2[C@@H]3CC=C4c5nc(Nc6ccccn6)sc5CC[C@]4(C)[C@H]3CC[C@@]21C`, the GI50 is 1.32 µM in [1]; 1.72 µM in [2]; 0.218 µM in [3]; 0.182 µM in [4]; 1.6 µM in test [5]; 0.389 µM in test [6]. Further, the GI50 was 1.29 µM in test [7], 1.65 µM in test [8], 0.603 µM in test [9] and 0.279 µM in test [10]. Also, the TGI was determined as 5.29 µM in [1]; 9.14 µM in [2]; 0.489 µM in [3]; 0.602 µM in test [4]; 2.98 µM in test [5]; 1.69 µM in test [6]. For the same molecule, the TGI is 2.59 µM in test [7], 4.44 µM in test [8], 3.08 µM in test [9] and 1.01 µM in test [10].

Regarding `COC(=O)c1ccc2c(c1)C(NC(C)=O)CCc1cc(OC)c(OC)c(OC)c1-2` (stereo not drawn), the TGI is 13.9 µM in [1]; above 100 µM in test [2]; 3.03 µM in test [3]; above 100 µM in test [4]; 0.216 µM in [5]; 93.3 µM in [6]. The TGI in [7] was above 96.5 µM; in test [8], above 95.9 µM; in test [9] it was 6.58 µM; in test [10], above 100 µM.

Consider `CSc1ccc(/C=C2\CNC/C(=C\c3ccc(SC)cc3)C2=O)cc1`, for which the GI50 in test [1] is 77.8 µg/mL; in test [2], 150 µg/mL; in [3], 9.25 µg/mL; in test [4], 61.9 µg/mL; in test [5], 150 µg/mL; in test [7] it was 7.76 µM and 150 µg/mL. The GI50 in [8], in [9] and in [10] was 150 µg/mL each time. In addition, the TGI in test [1] is > 170 µM and 148 µg/mL; in test [2], > 371 µM and 150 µg/mL; in test [3] it was > 150 µM and 33.5 µg/mL; in test [4], > 371 µM and 150 µg/mL; in test [5] it was > 371 µM and 150 µg/mL; in test [6], 153 µM. The TGI in test [7] is > 371 µM and 150 µg/mL; in test [8], > 371 µM and 150 µg/mL; in test [9] it was > 371 µM and 150 µg/mL; in [10] it was > 371 µM and 150 µg/mL.

As for `COc1cc(-c2csc(NC(=O)c3cc(C(F)(F)F)cc(C(F)(F)F)c3)n2)cc(OC)c1OC`, the GI50 in [1] was 2.91 µM; in test [2] it was 2.47 µM; in test [3], 2.27 µM; in [4], 1.38 µM; in [5], 1.47 µM; in test [6], 3.16 µM. Also, the GI50 in [7] is 2.92 µM; in [8] it was 3.94 µM; in test [9] it was 1.6 µM; in test [10] it was 2.77 µM. Also, the TGI was 9.76 µM in test [1]; above 100 µM in [2]; 14.7 µM in test [3]; 4.05 µM in test [4]; 3.11 µM in test [5]; above 100 µM in test [6]. In addition, the TGI in test [7] is above 100 µM; in test [8], above 100 µM; in test [9], 4.81 µM; in test [10] it was above 100 µM.

In the case of `CC(C)N(C(C)C)[PH+]1O[PH+](N(C(C)C)C(C)C)O[PH+](N(C(C)C)C(C)C)O[PH+](N(C(C)C)C(C)C)O[PH+](N(C(C)C)C(C)C)O1.[C-]#[O+].[C-]#[O+].[C-]#[O+].[C-]#[O+].[C-]#[O+].[C-]#[O+].[C-]#[O+].[Cr].[Cr]` (stereo not drawn), the GI50 in [1], in [2], in [3], in [4], in test [5] and in [6] was above 100 µM each time. Also, the GI50 in test [7], in test [8], in test [9] and in [10] was above 100 µM throughout. The TGI in [1], in test [2], in [3], in test [4], in test [5] and in test [6] was above 100 µM throughout. Besides, the TGI in test [7], in [8], in [9] and in test [10] was above 100 µM each time.

Consider `C/C(=N\O)c1ccc(Nc2cc(-n3nnc4ccccc43)nc3ccccc23)cc1`, for which the GI50 is 24.1 µM in test [1]; 6.97 µM in test [2]; 10.3 µM in test [3]; 3.19 µM in [4]; 5.57 µM in test [5]; 4.89 µM in [6]. For the same molecule, the GI50 was 3.44 µM in [7], 8.49 µM in [8], 15.6 µM in [9] and 16.9 µM in test [10]. Also, the TGI in [1] was above 62.3 µM; in [2], above 28.9 µM; in test [3], above 100 µM; in [4], 12.8 µM; in test [5], 16.6 µM; in test [6], 13.3 µM. Further, the TGI in test [7] is 13.5 µM; in test [8] it was above 37.3 µM; in test [9] it was 47.6 µM; in test [10] it was above 69 µM.

`CC1(C)CCC(C)(C)c2cc(C(=O)Nc3ccc(C(=O)O)cc3)ccc21`: the TGI in [1] is above 61.1 µM; in [2] it was above 100 µM; in [3] it was above 54.7 µM; in [4] it was 57.7 µM; in [5] it was above 56 µM; in [6], above 56.5 µM. Also, the TGI in test [7] is above 58.2 µM; in test [8], above 100 µM; in test [9] it was 44.7 µM; in test [10], above 90.8 µM.

For `CC1(C)O[C@H]2OC3CCC(=O)CC3(O)[C@H]2O1` (stereo partly drawn), the TGI in test [1], in [2], in test [3], in test [4], in test [5] and in test [6] was above 100 µM throughout. The TGI in test [7], in test [8], in test [9] and in test [10] was above 100 µM each time.

For `Cc1ccc(C(=O)Nc2ccc(CN3CCN(C)CC3)c(C(F)(F)F)c2)cc1C#Cc1cnc(N)c2ccc(F)cc12`, the GI50 in test [1] was 0.684 µM; in [2], 1.06 µM; in [3] it was 0.633 µM; in test [4], 0.53 µM; in [5] it was 0.805 µM; in test [6], 0.305 µM. For the same molecule, the GI50 is 0.216 µM in [7], 0.694 µM in test [8], 0.27 µM in test [9] and 0.41 µM in [10]. Also, the TGI in test [1] is 2.88 µM; in test [2], 4.73 µM; in test [3] it was 2.34 µM; in test [4], 1.64 µM; in test [5], 2.18 µM; in [6], 0.731 µM. The TGI in [7] came out at 0.557 µM; in test [8], 2.7 µM; in [9], 1.44 µM; in test [10] it was 0.918 µM.

Take `CNC(=O)Nc1ccc(-c2nc(N3CCOCC3)nc3c2cnn3C2CCOCC2)cc1`: the GI50 in test [1] is 0.12 µM; in test [2], 0.18 µM; in test [3] it was 0.0716 µM; in test [4], 0.205 µM; in [5], 0.208 µM; in test [6], 0.295 µM. Besides, the GI50 in test [7] is 0.161 µM; in test [8] it was 0.194 µM; in test [9], 0.382 µM; in test [10], 0.164 µM. Further, the TGI in [1] was 0.685 µM; in [2], 2.42 µM; in test [3], 0.585 µM; in [5] it was 1.22 µM; in [6], 2.86 µM; in test [7], above 100 µM. Besides, the TGI in test [8] is 1.36 µM; in [9], 3.56 µM; in test [10] it was 2.22 µM.

What is called GI50 is the concentration giving 50% growth inhibition. As usually defined, the TGI is the concentration giving total growth inhibition. Read a high TGI as lower sensitivity of the cells.
